From ChEMBL document CHEMBL2440112, “Structure-activity relationships of the aromatic site in novel anticonvulsant pyrrolo[1,2-a]pyrazine derivatives” (Bioorg Med Chem Lett, 2013)
Active and inactive are the calls of the source. No cut-off for these calls is given here.

Tests used:
Mus musculus [1] = test: Anticonvulsant activity in albino mouse assessed as protection against subcutaneous metrazole-induced seizures at 100 mg/kg, ip after 0.5 hrs; type: functional, organism-based; set-up: dose 100 mg/kg
Mus musculus [2] = test: Anticonvulsant activity in albino mouse assessed as protection against maximal electroshock-induced seizures at 100 mg/kg, ip after 0.25 hrs; type: functional, organism-based; set-up: dose 100 mg/kg
Mus musculus [3] = test: Neurotoxicity in albino mouse assessed as minimal motor impairment at 100 mg/kg, ip after 4 hrs by rotorod test; type: toxicity, organism-based; set-up: dose 100 mg/kg, route intraperitoneal; conditions: in vivo
Mus musculus [4] = test: Anticonvulsant activity in albino mouse assessed as protection against maximal electroshock-induced seizures at 100 mg/kg, ip after 4 hrs; type: functional, organism-based; set-up: dose 100 mg/kg
Rattus norvegicus = test: Anticonvulsant activity in po dosed albino Sprague-Dawley rat assessed as protection against maximal electroshock-induced seizures after […] to 4 hrs; type: functional, organism-based
Mus musculus [5] = test: Neurotoxicity in albino mouse assessed as minimal motor impairment at 100 mg/kg, ip after 1 hr by rotorod test; type: toxicity, organism-based; set-up: dose 100 mg/kg, route intraperitoneal; conditions: in vivo
Mus musculus [6] = test: Neurotoxicity in albino mouse assessed as minimal motor impairment at 100 mg/kg, ip after 0.25 hrs by rotorod test; type: toxicity, organism-based; set-up: dose 100 mg/kg, route intraperitoneal; conditions: in vivo
Mus musculus [7] = test: Anticonvulsant activity in albino mouse assessed as protection against maximal electroshock-induced seizures at 100 mg/kg, ip after 0.5 hrs; type: functional, organism-based; set-up: dose 100 mg/kg
Mus musculus [8] = test: Neurotoxicity in albino mouse assessed as minimal motor impairment at 100 mg/kg, ip after 0.5 hrs by rotorod test; type: toxicity, organism-based; set-up: dose 100 mg/kg, route intraperitoneal; conditions: in vivo
Mus musculus [9] = test: Anticonvulsant activity in albino mouse assessed as protection against subcutaneous metrazole-induced seizures at 100 mg/kg, ip after 4 hrs; type: functional, organism-based; set-up: dose 100 mg/kg
Mus musculus [10] = test: Anticonvulsant activity in albino mouse assessed as protection against maximal electroshock-induced seizures at 100 mg/kg, ip after 1 hr; type: functional, organism-based; set-up: dose 100 mg/kg
Mus musculus [11] = test: Anticonvulsant activity in albino mouse assessed as protection against 6 Hz psychomotor seizure at 100 mg/kg, ip after 0.5 hrs by minimal clonic seizure test; type: functional, organism-based; set-up: dose 100 mg/kg
Mus musculus [12] = test: Neurotoxicity in albino mouse minimal clonic seizure model assessed as minimal motor impairment at 100 mg/kg, ip after 1 hr by rotorod test; type: toxicity, organism-based; set-up: dose 100 mg/kg, route intraperitoneal; conditions: in vivo
Mus musculus [13] = test: Neurotoxicity in albino mouse minimal clonic seizure model assessed as minimal motor impairment at 100 mg/kg, ip after 2 hrs by rotorod test; type: toxicity, organism-based; set-up: dose 100 mg/kg, route intraperitoneal; conditions: in vivo
Mus musculus [14] = test: Anticonvulsant activity in albino mouse assessed as protection against 6 Hz psychomotor seizure at 100 mg/kg, ip after 1 hr by minimal clonic seizure test; type: functional, organism-based; set-up: dose 100 mg/kg
Mus musculus [15] = test: Neurotoxicity in albino mouse minimal clonic seizure model assessed as minimal motor impairment at 100 mg/kg, ip after 0.25 hrs by rotorod test; type: toxicity, organism-based; set-up: dose 100 mg/kg, route intraperitoneal; conditions: in vivo
Mus musculus [16] = test: Anticonvulsant activity in albino mouse assessed as protection against 6 Hz psychomotor seizure at 100 mg/kg, ip after 2 hrs by minimal clonic seizure test; type: functional, organism-based; set-up: dose 100 mg/kg
Mus musculus [17] = test: Anticonvulsant activity in albino mouse assessed as protection against 6 Hz psychomotor seizure at 100 mg/kg, ip after 4 hrs by minimal clonic seizure test; type: functional, organism-based; set-up: dose 100 mg/kg
Mus musculus [18] = test: Neurotoxicity in albino mouse minimal clonic seizure model assessed as minimal motor impairment at 100 mg/kg, ip after 4 hrs by rotorod test; type: toxicity, organism-based; set-up: dose 100 mg/kg, route intraperitoneal; conditions: in vivo
Mus musculus [19] = test: Neurotoxicity in albino mouse minimal clonic seizure model assessed as minimal motor impairment at 100 mg/kg, ip after 0.5 hrs by rotorod test; type: toxicity, organism-based; set-up: dose 100 mg/kg, route intraperitoneal; conditions: in vivo
Mus musculus [20] = test: Anticonvulsant activity in albino mouse assessed as protection against 6 Hz psychomotor seizure at 100 mg/kg, ip after 0.25 hrs by minimal clonic seizure test; type: functional, organism-based; set-up: dose 100 mg/kg
Mus musculus [21] = test: Anticonvulsant activity in ip dosed albino mouse assessed as time of peak effect for protection against 6 Hz psychomotor seizure by minimal clonic seizure test; type: functional
Mus musculus [22] = test: Anticonvulsant activity in ip dosed albino mouse assessed as protection against 6 Hz psychomotor seizure by minimal clonic seizure test; type: functional
[23] = Neurotoxicity in ip dosed albino mouse minimal clonic seizure model assessed as minimal motor impairment by rotorod test; type: toxicity, organism-based; conditions: in vivo
Mus musculus [24] = species on record: Mus musculus; test: Protective index, ratio of TD50 for albino mouse minimal clonic seizure model to ED50 for albino mouse assessed as protection against 6 Hz psychomotor seizure; type: functional
Mus musculus [25] = test: Anticonvulsant activity in albino mouse assessed as protection against subcutaneous metrazole-induced seizures at 300 mg/kg, ip after 0.5 hrs; type: functional, organism-based; set-up: dose 300 mg/kg

SMILES	Activity (Mus musculus [1])	Activity (Mus musculus [2])	Activity (Mus musculus [3])	Activity (Mus musculus [4])	Activity (Rattus norvegicus)	Activity (Mus musculus [5])	Activity (Mus musculus [6])	Activity (Mus musculus [7])	Activity (Mus musculus [8])	Activity (Mus musculus [9])	Activity (Mus musculus [10])	further results
COc1ccc([C@H]2C(=O)NC(=O)[C@@H]3CCCN23)cc1	inactive	inactive	Non-toxic	inactive	inactive	Non-toxic	Non-toxic	inactive	Non-toxic	inactive	inactive	–
COc1ccccc1[C@H]1C(=O)NC(=O)[C@@H]2CCCN12	inactive	inactive	Non-toxic	inactive	inactive	Non-toxic	Non-toxic	inactive	Non-toxic	inactive	inactive	Activity (Mus musculus [11]): Active; Activity (Mus musculus [12]): Non-toxic; Activity (Mus musculus [13]): Non-toxic; Activity (Mus musculus [14]): Active; Activity (Mus musculus [15]): Non-toxic; Activity (Mus musculus [16]): inactive; Activity (Mus musculus [17]): inactive; Activity (Mus musculus [18]): Non-toxic; Activity (Mus musculus [19]): Non-toxic; Activity (Mus musculus [20]): Active
O=C1NC(=O)[C@@H]2CCCN2[C@H]1c1ccco1	inactive	–	Non-toxic	inactive	inactive	–	–	inactive	Toxic	inactive	–	–
CCC1(C)CC(=O)NC1=O (centres undefined) [ETHOSUXIMIDE]	–	–	–	–	–	–	–	–	–	–	–	Time (Mus musculus [21]): 0.25 h
Cc1ccc([C@H]2C(=O)NC(=O)[C@@H]3CCCN23)cc1	inactive	inactive	Non-toxic	inactive	inactive	Non-toxic	Non-toxic	inactive	Non-toxic	inactive	inactive	Activity (Mus musculus [11]): Active; ED50 (Mus musculus [22]): 41.7 mg/kg; Activity (Mus musculus [14]): Active; Activity (Mus musculus [16]): inactive; Activity (Mus musculus [17]): inactive; TD50 [23]: 167 mg/kg; Time (Mus musculus [21]): 0.25 h; Activity (Mus musculus [20]): Active; Ratio TD50/ED50 (Mus musculus [24]): 4
Cl.O=C1NC(=O)[C@@H]2CCCN2[C@H]1c1ccccc1Cl	inactive	inactive	Non-toxic	inactive	inactive	Non-toxic	Non-toxic	inactive	Non-toxic	inactive	inactive	Activity (Mus musculus [25]): Active
O=C1NC(=O)[C@@H]2CCCN2[C@H]1c1ccc2ccccc2c1	inactive	–	Non-toxic	inactive	inactive	–	–	inactive	Non-toxic	inactive	–	–
